From the supplement of paper PMC6411743

These targets were tested with Nc1ncnc2c1ncn2[C@@H]1O[C@H](COP(=O)(O)OP(=O)(O)OP(=O)(O)O)[C@@H](O)[C@H]1O [adenosine triphosphate] (assay: pEC50 of ATP-induced change in protein thermal stability (2D-TPP)).
In short: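 Soluble protein was quantified by TMT LC-MS/MS after ultracentrifugation of Jurkat crude lysate that had been dosed at five concentrations including vehicle (10 min, room temperature), heated at 12 temperatures of 42–63.9 °C for 3 min, and incubated with NP40 and benzonase at 4 °C for 60 min. Fold changes against vehicle at each temperature were median-normalised, and pEC50 was derived from per-replicate dose-response fits over adjacent temperature pairs. Hits were called with permutation-based false discovery rate control in three independent experiments.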
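Also: lysate dosed with Na-ATP at 0 0.005 0.05 0.5 and 2 mM.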

Chain of UniProt P38919 (P38919 whole entry): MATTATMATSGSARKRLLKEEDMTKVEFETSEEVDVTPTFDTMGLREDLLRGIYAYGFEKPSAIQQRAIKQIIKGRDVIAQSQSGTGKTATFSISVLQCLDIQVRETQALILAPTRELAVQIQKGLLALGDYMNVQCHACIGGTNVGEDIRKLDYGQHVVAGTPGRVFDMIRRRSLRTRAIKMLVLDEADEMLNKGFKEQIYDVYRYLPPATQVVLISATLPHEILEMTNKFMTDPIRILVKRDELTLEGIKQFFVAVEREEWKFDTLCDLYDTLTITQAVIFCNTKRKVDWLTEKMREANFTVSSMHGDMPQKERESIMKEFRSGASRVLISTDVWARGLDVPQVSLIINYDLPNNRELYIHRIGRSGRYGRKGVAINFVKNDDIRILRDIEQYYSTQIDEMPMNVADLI
Chain of UniProt Q9HB71 (Q9HB71 whole entry): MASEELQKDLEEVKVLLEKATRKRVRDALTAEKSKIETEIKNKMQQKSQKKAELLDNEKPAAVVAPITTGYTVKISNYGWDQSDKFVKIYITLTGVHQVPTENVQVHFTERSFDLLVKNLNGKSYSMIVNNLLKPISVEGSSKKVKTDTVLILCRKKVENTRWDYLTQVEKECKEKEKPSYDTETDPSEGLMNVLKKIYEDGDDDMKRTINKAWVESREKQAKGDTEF
Chain of UniProt Q9BQE3 (Q9BQE3 whole entry): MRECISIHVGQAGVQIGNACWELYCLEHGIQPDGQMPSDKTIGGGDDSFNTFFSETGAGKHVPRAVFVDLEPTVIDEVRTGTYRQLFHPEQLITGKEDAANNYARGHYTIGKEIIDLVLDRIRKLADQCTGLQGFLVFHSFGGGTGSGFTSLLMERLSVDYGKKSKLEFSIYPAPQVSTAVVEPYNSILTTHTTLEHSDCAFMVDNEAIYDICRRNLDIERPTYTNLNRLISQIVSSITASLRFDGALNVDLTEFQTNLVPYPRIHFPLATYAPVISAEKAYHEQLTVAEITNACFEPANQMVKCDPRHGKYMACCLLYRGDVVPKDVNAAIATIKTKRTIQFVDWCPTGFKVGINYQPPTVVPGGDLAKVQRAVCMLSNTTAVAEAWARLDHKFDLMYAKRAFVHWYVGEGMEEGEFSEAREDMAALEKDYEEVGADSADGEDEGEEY
Chain of UniProt P54886 (P54886 whole entry): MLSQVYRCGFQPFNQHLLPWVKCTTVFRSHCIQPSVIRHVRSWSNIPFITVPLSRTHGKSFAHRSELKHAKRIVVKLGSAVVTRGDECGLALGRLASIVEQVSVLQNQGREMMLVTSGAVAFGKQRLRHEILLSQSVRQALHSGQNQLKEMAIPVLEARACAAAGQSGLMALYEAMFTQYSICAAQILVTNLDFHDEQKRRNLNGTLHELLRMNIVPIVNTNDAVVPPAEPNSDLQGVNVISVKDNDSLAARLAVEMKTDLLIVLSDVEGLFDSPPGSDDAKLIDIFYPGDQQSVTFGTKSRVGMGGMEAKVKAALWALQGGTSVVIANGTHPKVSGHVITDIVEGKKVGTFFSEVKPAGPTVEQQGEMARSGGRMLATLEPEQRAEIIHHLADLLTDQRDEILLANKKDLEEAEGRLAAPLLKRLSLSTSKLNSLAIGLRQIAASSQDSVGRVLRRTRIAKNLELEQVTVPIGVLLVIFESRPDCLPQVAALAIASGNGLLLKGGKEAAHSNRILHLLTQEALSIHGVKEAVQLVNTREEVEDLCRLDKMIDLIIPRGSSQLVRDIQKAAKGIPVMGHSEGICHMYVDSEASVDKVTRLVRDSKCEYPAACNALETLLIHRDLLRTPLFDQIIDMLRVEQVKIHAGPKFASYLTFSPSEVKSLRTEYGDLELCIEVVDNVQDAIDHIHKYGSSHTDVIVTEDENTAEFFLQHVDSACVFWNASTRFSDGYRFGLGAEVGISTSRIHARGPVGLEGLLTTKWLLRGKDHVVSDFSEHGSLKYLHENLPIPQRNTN
Chain of UniProt P52306 (P52306 whole entry): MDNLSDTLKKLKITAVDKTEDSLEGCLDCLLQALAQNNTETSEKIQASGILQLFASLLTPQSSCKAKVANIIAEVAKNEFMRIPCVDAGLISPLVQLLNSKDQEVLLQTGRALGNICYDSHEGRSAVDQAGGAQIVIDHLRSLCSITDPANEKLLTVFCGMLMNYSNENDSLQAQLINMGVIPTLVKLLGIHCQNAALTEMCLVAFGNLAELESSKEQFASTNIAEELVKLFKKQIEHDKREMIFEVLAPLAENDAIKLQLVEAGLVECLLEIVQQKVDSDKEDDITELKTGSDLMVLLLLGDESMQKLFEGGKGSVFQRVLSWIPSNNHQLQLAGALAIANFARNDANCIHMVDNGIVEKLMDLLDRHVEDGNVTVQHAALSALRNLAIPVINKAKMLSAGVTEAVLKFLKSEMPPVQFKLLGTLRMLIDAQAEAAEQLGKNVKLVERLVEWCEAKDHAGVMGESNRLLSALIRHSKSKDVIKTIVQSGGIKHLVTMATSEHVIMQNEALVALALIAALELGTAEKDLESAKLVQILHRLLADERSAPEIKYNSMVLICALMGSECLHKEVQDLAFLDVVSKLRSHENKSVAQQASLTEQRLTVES
Chain of UniProt P22670 (P22670 whole entry): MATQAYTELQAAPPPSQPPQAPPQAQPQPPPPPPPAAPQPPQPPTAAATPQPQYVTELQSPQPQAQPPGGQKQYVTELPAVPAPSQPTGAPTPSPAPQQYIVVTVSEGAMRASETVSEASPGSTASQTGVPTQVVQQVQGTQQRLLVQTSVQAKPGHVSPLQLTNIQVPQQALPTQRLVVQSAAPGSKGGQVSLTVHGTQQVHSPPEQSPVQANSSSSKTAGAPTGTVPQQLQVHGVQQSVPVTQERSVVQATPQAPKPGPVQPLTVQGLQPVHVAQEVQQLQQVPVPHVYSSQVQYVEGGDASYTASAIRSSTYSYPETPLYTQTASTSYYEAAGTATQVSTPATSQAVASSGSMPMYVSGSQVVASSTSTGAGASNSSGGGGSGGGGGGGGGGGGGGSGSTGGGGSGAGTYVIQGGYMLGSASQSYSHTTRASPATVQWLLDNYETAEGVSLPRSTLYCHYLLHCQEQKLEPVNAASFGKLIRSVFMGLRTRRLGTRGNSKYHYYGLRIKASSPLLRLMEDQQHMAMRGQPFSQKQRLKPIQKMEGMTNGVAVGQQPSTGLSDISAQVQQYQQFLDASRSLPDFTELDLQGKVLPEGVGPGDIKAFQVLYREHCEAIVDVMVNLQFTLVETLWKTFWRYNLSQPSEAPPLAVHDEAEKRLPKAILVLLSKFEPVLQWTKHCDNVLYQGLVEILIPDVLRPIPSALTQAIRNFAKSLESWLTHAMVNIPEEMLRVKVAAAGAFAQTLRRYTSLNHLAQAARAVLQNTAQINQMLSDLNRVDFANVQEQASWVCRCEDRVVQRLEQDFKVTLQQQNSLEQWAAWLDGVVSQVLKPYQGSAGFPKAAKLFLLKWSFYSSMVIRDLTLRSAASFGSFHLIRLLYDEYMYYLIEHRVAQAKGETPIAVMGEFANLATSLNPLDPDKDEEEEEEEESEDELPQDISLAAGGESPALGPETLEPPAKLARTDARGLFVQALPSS
Chain of UniProt Q01432 (Q01432 whole entry): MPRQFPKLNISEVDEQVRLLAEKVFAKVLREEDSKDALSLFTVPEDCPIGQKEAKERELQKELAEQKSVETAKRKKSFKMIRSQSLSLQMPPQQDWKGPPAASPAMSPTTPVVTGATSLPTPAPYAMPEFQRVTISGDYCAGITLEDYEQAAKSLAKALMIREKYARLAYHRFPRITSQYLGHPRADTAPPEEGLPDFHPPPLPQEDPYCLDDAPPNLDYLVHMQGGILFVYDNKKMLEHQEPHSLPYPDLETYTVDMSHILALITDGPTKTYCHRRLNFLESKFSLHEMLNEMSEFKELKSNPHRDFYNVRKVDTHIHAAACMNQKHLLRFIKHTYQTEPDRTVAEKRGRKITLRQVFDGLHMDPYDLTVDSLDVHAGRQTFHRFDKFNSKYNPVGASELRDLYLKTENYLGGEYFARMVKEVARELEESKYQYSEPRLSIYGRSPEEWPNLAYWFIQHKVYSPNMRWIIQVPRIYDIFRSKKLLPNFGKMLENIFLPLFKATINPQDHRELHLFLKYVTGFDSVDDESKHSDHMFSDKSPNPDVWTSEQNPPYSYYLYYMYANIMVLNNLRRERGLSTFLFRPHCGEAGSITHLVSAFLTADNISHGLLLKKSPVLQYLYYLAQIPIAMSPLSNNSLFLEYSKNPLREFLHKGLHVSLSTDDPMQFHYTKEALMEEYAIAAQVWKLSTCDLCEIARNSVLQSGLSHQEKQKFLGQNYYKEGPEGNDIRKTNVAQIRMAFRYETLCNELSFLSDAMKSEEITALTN
Chain of UniProt O60880 (O60880 whole entry): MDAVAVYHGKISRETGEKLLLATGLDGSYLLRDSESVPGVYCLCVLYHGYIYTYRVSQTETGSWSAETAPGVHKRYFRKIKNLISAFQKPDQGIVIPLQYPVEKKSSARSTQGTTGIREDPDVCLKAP
Chain of UniProt Q8TBB5 (Q8TBB5 whole entry): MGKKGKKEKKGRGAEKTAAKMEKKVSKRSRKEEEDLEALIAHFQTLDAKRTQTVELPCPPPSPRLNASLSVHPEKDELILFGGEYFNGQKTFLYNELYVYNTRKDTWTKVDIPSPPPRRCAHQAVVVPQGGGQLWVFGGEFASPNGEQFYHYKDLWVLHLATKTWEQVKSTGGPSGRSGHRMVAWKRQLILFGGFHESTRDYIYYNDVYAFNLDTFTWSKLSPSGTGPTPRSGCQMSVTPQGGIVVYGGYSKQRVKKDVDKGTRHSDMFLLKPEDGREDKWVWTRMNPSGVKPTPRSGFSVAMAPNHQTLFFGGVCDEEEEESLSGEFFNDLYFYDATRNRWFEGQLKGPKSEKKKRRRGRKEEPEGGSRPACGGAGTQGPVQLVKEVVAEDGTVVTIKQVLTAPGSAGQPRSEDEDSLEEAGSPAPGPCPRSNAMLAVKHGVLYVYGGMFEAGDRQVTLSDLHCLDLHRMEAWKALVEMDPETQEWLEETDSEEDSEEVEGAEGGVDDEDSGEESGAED
Chain of UniProt Q15843 (Q15843 whole entry): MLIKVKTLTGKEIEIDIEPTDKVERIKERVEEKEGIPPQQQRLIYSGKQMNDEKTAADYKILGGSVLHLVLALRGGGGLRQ

Row | Target | pEC50
1 | NARS2 (effect direction: stabilized) (UniProt Q96I59) | 4.1
2 | ATP2C1 (effect direction: stabilized) (UniProt P98194) | 3.66
3 | NMT1 (effect direction: stabilized) (UniProt P30419) | 3.06
4 | KLHDC4 (effect direction: stabilized) (UniProt Q8TBB5) | < 2.7
5 | NUMB (effect direction: stabilized) (UniProt P49757) | 3.45
6 | RASSF5 (effect direction: stabilized) (UniProt Q8WWW0) | 3.13
7 | MOB2 (effect direction: stabilized) (UniProt Q70IA6) | 3.21
8 | MRPS23 (effect direction: destabilized) (UniProt Q9Y3D9) | 3.89
9 | NEDD8 (effect direction: destabilized) (UniProt Q15843) | 3.02
10 | NUDT2 (effect direction: stabilized) (UniProt P50583) | 3.31
11 | HSD17B10 (effect direction: stabilized) (UniProt Q99714) | 3.24
12 | WDR61 (effect direction: stabilized) (UniProt Q9GZS3) | 2.85
13 | CACYBP (effect direction: stabilized) (UniProt Q9HB71) | 2.95
14 | SMC2 (effect direction: stabilized) (UniProt O95347) | 3.49
15 | GPD1L (effect direction: stabilized) (UniProt Q8N335) | 3.09
16 | TLK2 (effect direction: stabilized) (UniProt Q86UE8) | 3.07
17 | UniProt P61254 (effect direction: destabilized) | < 2.7
18 | ILKAP (effect direction: stabilized) (UniProt Q9H0C8) | < 2.7
19 | PSMD3 (effect direction: stabilized) (UniProt O43242) | 4.24
20 | UniProt P25098 (effect direction: stabilized) | 3.38
21 | EIF4A3 (effect direction: stabilized) (UniProt P38919) | 3.68

Row | Target | pEC50
22 | UBE2O (effect direction: stabilized) (UniProt Q9C0C9) | < 2.7
23 | UMPS (effect direction: stabilized) (UniProt P11172) | < 2.7
24 | UniProt O43847 (effect direction: stabilized) | < 2.7
25 | UniProt Q9UKZ1 (effect direction: stabilized) | 3.4
26 | DYNC1H1 (effect direction: stabilized) (UniProt Q14204) | 3.39
27 | NT5DC2 (effect direction: stabilized) (UniProt Q9H857) | < 2.7
28 | UniProt P26639 (effect direction: stabilized) | < 2.7
29 | NANP (effect direction: destabilized) (UniProt Q8TBE9) | 3.08
30 | VTN (effect direction: destabilized) (UniProt P04004) | 3.24
31 | RPN1 (effect direction: stabilized) (UniProt P04843) | < 2.7
32 | HSPA4 (effect direction: stabilized) (UniProt P34932) | < 2.7
33 | UniProt Q13043 (effect direction: stabilized) | 3.38
34 | USP5 (effect direction: stabilized) (UniProt P45974) | < 2.7
35 | PEF1 (effect direction: destabilized) (UniProt Q9UBV8) | 2.86
36 | CNOT10 (effect direction: stabilized) (UniProt Q9H9A5) | 3.17
37 | PRKRIP1 (effect direction: destabilized) (UniProt Q9H875) | 2.81
38 | UniProt Q147X3 (effect direction: stabilized) | 2.88
39 | ALDH18A1 (effect direction: stabilized) (UniProt P54886) | 3.12
40 | ATP2B4 (effect direction: stabilized) (UniProt P23634) | 3.22
41 | EHD4 (effect direction: stabilized) (UniProt Q9H223) | 3.86
42 | UniProt Q96G23 (effect direction: stabilized) | 3.02

Row | Target | pEC50
43 | TCP1 (effect direction: stabilized) (UniProt P17987) | 4.76
44 | CCT6A (effect direction: stabilized) (UniProt P40227) | 4.38
45 | SCPEP1 (effect direction: stabilized) (UniProt Q9HB40) | 3.37
46 | PRKACB (effect direction: stabilized) (UniProt P22694) | 3.91
47 | HSP90AB1 (effect direction: stabilized) (UniProt P08238) | < 2.7
48 | UniProt P0DMV8 (effect direction: stabilized) | 3.72
49 | UniProt P48729 (effect direction: stabilized) | 3.3
50 | CPSF2 (effect direction: stabilized) (UniProt Q9P2I0) | < 2.7
51 | KIF1B (effect direction: stabilized) (UniProt O60333) | 3.68
52 | TUBA1C (effect direction: stabilized) (UniProt Q9BQE3) | 3.5
53 | PSMD5 (effect direction: stabilized) (UniProt Q16401) | 3.99
54 | RAP1GDS1 (effect direction: stabilized) (UniProt P52306) | < 2.7
55 | AIP (effect direction: stabilized) (UniProt O00170) | < 2.7
56 | AMPD3 (effect direction: stabilized) (UniProt Q01432) | 2.95
57 | SH2D1A (effect direction: stabilized) (UniProt O60880) | < 2.7
58 | ENO2 (effect direction: destabilized) (UniProt P09104) | 2.99
59 | HNRNPL (effect direction: stabilized) (UniProt P14866) | 3.23
60 | CTSD (effect direction: stabilized) (UniProt P07339) | 3.11
61 | MTHFD2 (effect direction: stabilized) (UniProt P13995) | 3.15
62 | BNIP2 (effect direction: stabilized) (UniProt Q12982) | < 2.7

The next lines start with the values.

Row | pEC50 | Target
63 | < 2.7 | PTAR1 (effect direction: stabilized) (UniProt Q7Z6K3)
64 | 3.69 | RACGAP1 (effect direction: stabilized) (UniProt Q9H0H5)
65 | < 2.7 | XRCC6 (effect direction: stabilized) (UniProt P12956)
66 | < 2.7 | UniProt P84085 (effect direction: destabilized)
67 | 4.05 | ARPC5L (effect direction: stabilized) (UniProt Q9BPX5)
68 | 2.91 | DUS3L (effect direction: stabilized) (UniProt Q96G46)
69 | 3.72 | UniProt Q9Y2U5 (effect direction: stabilized)
70 | 3.75 | NIPSNAP1 (effect direction: stabilized) (UniProt Q9BPW8)
71 | 4.09 | STAG2 (effect direction: stabilized) (UniProt Q8N3U4)
72 | 3.65 | ALKBH5 (effect direction: stabilized) (UniProt Q6P6C2)
73 | < 2.7 | PPM1H (effect direction: destabilized) (UniProt Q9ULR3)
74 | 3.15 | NAGK (effect direction: stabilized) (UniProt Q9UJ70)
75 | 3.7 | UniProt P23443 (effect direction: stabilized)
76 | < 2.7 | G6PD (effect direction: stabilized) (UniProt P11413)
77 | 2.87 | UniProt P14618 (effect direction: destabilized)
78 | < 2.7 | SF3A3 (effect direction: stabilized) (UniProt Q12874)
79 | 4.09 | WRN (effect direction: stabilized) (UniProt Q14191)
80 | 4.16 | PSMD7 (effect direction: stabilized) (UniProt P51665)
81 | 3.6 | MYH9 (effect direction: stabilized) (UniProt P35579)
82 | < 2.7 | SSB (effect direction: stabilized) (UniProt P05455)
83 | < 2.7 | SPTBN1 (effect direction: stabilized) (UniProt Q01082)
84 | < 2.7 | HNRNPF (effect direction: stabilized) (UniProt P52597)
85 | 3.11 | UGDH (effect direction: stabilized) (UniProt O60701)
86 | 3.14 | CARS2 (effect direction: stabilized) (UniProt Q9HA77)
87 | 3.88 | SPN (effect direction: destabilized) (UniProt P16150)
88 | 3.74 | UniProt Q9NQG6 (effect direction: stabilized)
89 | 2.96 | KPNB1 (effect direction: stabilized) (UniProt Q14974)
90 | < 2.7 | RFX1 (effect direction: stabilized) (UniProt P22670)
91 | < 2.7 | CRLF3 (effect direction: stabilized) (UniProt Q8IUI8)
92 | < 2.7 | SAE1 (effect direction: stabilized) (UniProt Q9UBE0)
